Laboratory results taken from ChEMBL document CHEMBL1201862, “PubChem BioAssay data set” (2004).
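Five compound concentrations were applied to cells in 96-well plates for 48 hours; endpoints were derived by simple linear interpolation of the resulting dose-response curve. Abbreviation: GI50, concentration required for 50% inhibition of growth.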 Active and inactive are the calls of the source. Cut-off read from the data, not from the text of the source: active = GI50 up to about 1.1 µM and inactive = higher.

Assays:
Experiment in all cases: NCI tumour cell line growth inhibition, 48 h
[1] = tested on: NCI-H460
[2] = tested on: HCC 2998
[3] = tested on: M14
[4] = tested on: A498
[5] = tested on: HT-29
[6] = tested on: U-251
[7] = tested on: UACC-62
[8] = tested on: COLO 205
[9] = tested on: SR
[10] = tested on: T47D
[11] = tested on: K562
[12] = tested on: SK-MEL-28
[13] = tested on: ACHN
[14] = tested on: 786-0
[15] = tested on: SNB-75
[16] = tested on: RXF 393
[17] = tested on: MCF7
[18] = tested on: OVCAR-5
[19] = tested on: NCI/ADR-RES

Measured: GI50

CC(C)=NOC(=O)OC[C@H]1O[C@@H](n2cnc3c(N)ncnc32)C(O)C1O (stereo partly drawn)
inactive: [1] 40.9 µM | [2] > 100 µM | [3] 87.7 µM | [4] > 100 µM | [5] 85.3 µM | [6] > 100 µM | [7] > 10 µM | [8] > 100 µM | [9] > 100 µM | [10] > 100 µM | [11] 30.1 µM | [12] > 100 µM | [13] > 100 µM | [14] 70 µM | [15] > 100 µM | [16] > 100 µM | [17] 91.6 µM | [18] > 100 µM | [19] > 100 µM

CC1(C)CC[C@]2(C(=O)O)CC[C@]3(C)C(=CC[C@@H]4[C@@]5(C)CC[C@H](OC6OC(C(=O)O)C(O)C(O)C6O)C(C)(C)[C@@H]5CC[C@]43C)[C@@H]2C1 (stereo partly drawn)
inactive: [1] 18.7 µM | [2] 18.8 µM | [3] 16.9 µM | [4] 19.1 µM | [5] 15.1 µM | [6] 14.9 µM | [7] 18.4 µM | [8] 16.9 µM | [9] 15 µM | [10] 18.4 µM | [11] 17 µM | [12] 19.6 µM | [13] 16.1 µM | [14] 17.5 µM | [15] 18.1 µM | [16] 16.7 µM | [17] 24.9 µM | [18] 16.2 µM | [19] 17.7 µM

CN1CC2=C(N=C(S)NC2c2ccccc2Cl)/C(=C/c2ccccc2Cl)C1 (stereo not drawn)
inactive: [1] > 100 µM | [2] > 100 µM | [3] 38.9 µM | [4] 77.3 µM | [5] 30.8 µM | [6] 80.5 µM | [7] 14.7 µM | [8] 21.8 µM | [9] 17.7 µM | [10] 58.3 µM | [11] 29 µM | [12] > 100 µM | [13] 25.1 µM | [14] > 100 µM | [15] 3.33 µM | [16] > 100 µM | [17] > 100 µM | [18] > 100 µM | [19] 30.5 µM

CCSc1nc(=S)n(-c2ccccc2)c(C)c1C(C)=O
inactive: [1] > 100 µM | [2] > 100 µM | [3] > 100 µM | [4] > 100 µM | [5] > 100 µM | [6] > 100 µM | [7] > 100 µM | [8] > 100 µM | [9] > 100 µM | [10] > 100 µM | [11] > 100 µM | [12] > 100 µM | [13] > 100 µM | [14] > 100 µM | [15] > 100 µM | [16] > 100 µM | [17] > 100 µM | [18] > 100 µM | [19] > 100 µM

O=C(SCc1cccc2ccccc12)c1ccc(Cl)cc1
inactive: [1] 49 µM | [2] > 100 µM | [3] > 100 µM | [4] > 100 µM | [5] 54.2 µM | [6] > 100 µM | [7] > 100 µM | [8] 82.2 µM | [9] 39.3 µM | [10] 81.7 µM | [11] 48.4 µM | [12] > 100 µM | [13] > 100 µM | [14] > 100 µM | [15] > 100 µM | [16] > 100 µM | [17] > 100 µM | [18] > 100 µM | [19] > 100 µM

Cn1c(-c2ccccc2)cc(-c2ccc3c(c2)OCO3)c1-c1cccs1
inactive: [1] > 100 µM | [2] > 100 µM | [3] > 100 µM | [4] > 100 µM | [5] > 100 µM | [6] > 100 µM | [7] > 100 µM | [8] > 100 µM | [9] > 100 µM | [10] > 100 µM | [11] > 100 µM | [12] > 100 µM | [13] > 100 µM | [14] > 100 µM | [15] > 100 µM | [16] > 100 µM | [17] > 100 µM | [18] > 100 µM | [19] > 100 µM

O=c1c2cccnc2[s+]([O-])n1Cc1ccccc1 (stereo not drawn)
inactive: [1] > 100 µM | [2] > 100 µM | [3] > 100 µM | [4] > 100 µM | [5] > 100 µM | [6] > 100 µM | [7] > 100 µM | [8] > 100 µM | [9] > 100 µM | [10] > 100 µM | [11] > 100 µM | [12] > 100 µM | [13] > 100 µM | [14] > 100 µM | [15] > 100 µM | [16] > 100 µM | [17] > 100 µM | [18] > 100 µM | [19] > 100 µM
